As usually defined, the Ki is the equilibrium dissociation constant of an inhibitor or competing ligand from its target.

The results in this text go back to ChEMBL document CHEMBL1687911, “Design, synthesis, and biological evaluation of novel carbohydrate-based sulfamates as carbonic anhydrase inhibitors” (J Med Chem, 2011).

The target of this assay is Carbonic anhydrase 9 (Homo sapiens, UniProt Q16790). The assay can be described thus: Inhibition of human carbonic anhydrase 9 catalytic domain by CO2 hydration assay.

The structures appear in SMILES notation.

Compound `NS(=O)(=O)OC[C@H]1OC(O)[C@@H](O)[C@@H](O)[C@@H]1O` (some centres not stated) displayed a Ki of 53 nM.

Take `CCC(=O)O[C@@H]1O[C@H](COS(N)(=O)=O)[C@@H](OC(=O)CC)[C@H](OC(=O)CC)[C@H]1OC(=O)CC`: the inhibition constant (Ki) is 77 nM.

As for `CC(=O)O[C@@H]1O[C@H](COS(N)(=O)=O)[C@@H](OC(C)=O)[C@H](OC(C)=O)[C@@H]1OC(C)=O`, the inhibitory constant (Ki) came to 7.8 nM.

`CC(=O)O[C@@H]1O[C@H](COS(N)(=O)=O)[C@H](OC(C)=O)[C@H](OC(C)=O)[C@H]1OC(C)=O` had a Ki of 75 nM.

Take `NS(=O)(=O)OC[C@H]1OC(O)[C@H](O)[C@@H](O)[C@@H]1O` (some centres not stated): the affinity corresponds to a Ki of 8.6 nM.

In turn, `CC(=O)O[C@@H]1O[C@H](COS(N)(=O)=O)[C@@H](OC(C)=O)[C@H](OC(C)=O)[C@H]1OC(C)=O` yielded a Ki of 73 nM.

Compound `CO[C@H]1O[C@H](COS(N)(=O)=O)[C@@H](OC(C)=O)[C@H](OC(C)=O)[C@H]1OC(C)=O` showed a Ki of 8.4 nM.

The compound `CC(=O)OC[C@H]1O[C@@H](OC(C)=O)[C@H](OC(C)=O)[C@@H](OC(C)=O)[C@@H]1O[C@H]1O[C@H](COS(N)(=O)=O)[C@@H](OC(C)=O)[C@H](OC(C)=O)[C@H]1OC(C)=O` yielded a Ki of 631 nM.

With `NS(=O)(=O)OC[C@H]1O[C@H](O[C@H]2[C@H](O)[C@@H](O)[C@H](O)O[C@@H]2CO)[C@H](O)[C@@H](O)[C@@H]1O`, the Ki was found to be 497 nM. This Ki and that of the compound before are within 1.5-fold of each other.

Regarding `NS(=O)(=O)OC[C@H]1OC(O)[C@H](O)[C@@H](O)[C@H]1O` (some centres not stated), the affinity, expressed as Ki, was 62 nM.

The compound `CC(=O)OC[C@H]1O[C@@H](S(N)(=O)=O)[C@H](OC(C)=O)[C@@H](OC(C)=O)[C@H]1OC(C)=O` displayed a Ki of 4150 nM.

Compound `CO[C@H]1O[C@H](COS(N)(=O)=O)[C@@H](O)[C@H](O)[C@H]1O` gave a Ki of 9 nM.
